Assay: Penetration study, Franz diffusion apparatus, human skin (*)
Format: in vitro ADME
Conditions: Example 8; for Reduction of penetration on addition of the compound (in words): results similar to octanoic acid (reduces penetration by 50%)
Method: The following Penetration Studies carried out in the following manner. […] A normal saline solution is added to the lower diffusion cell, abutting the subcutaneous side of the skin. The test composition (comprising a solution of active or actives added to the carrier at the indicated formulation in a conventional manner by thoroughly mixing) is added to the diffusion cell abutting the epidermal side of the skin.
This cell assembly is kept at a constant temperature of about 31° C. At appropriate or desired intervals (these are the time designations given in the following examples) each diffusion cell assembly is opened and the diffusate from the cell abutting the subcutaneous side of the skin is withdrawn. Drug actives in a diffusate is measured using standard analytical techniques. Each trial is run on a separate sample of skin.

| Structure (SMILES) | Reduction of penetration on addition of the compound (in words) | Reduction of penetration on addition of the compound (added to 1% Triamcinolone in Propylene Glycol + 2% C14 OH, human skin, 0-72 hrs.) [%] |
| --- | --- | --- |
| CCCCCCCCCCCCCCCCO [cetyl alcohol] | Substantially similar results | – |
| CCCCCCCC(=O)O [octanoic acid] | – | 50 |
| CCCCCCCCCCCCCCCCCCO [stearyl alcohol] | Substantially similar results | – |
| CCCCCCCCCC(=O)O [decanoic acid] | Substantially similar results | – |
